Patent publication US8192962B2, “Processes for detecting toxic substances” (Daikin Industries, Ltd., priority 2001, dated 2012)

System: Transport facilitation protein genes
Test: DNA chip mRNA expression in yeast, transport facilitation protein genes (Table 5)
Type: cell-based, Saccharomyces cerevisiae S288C
Outline: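 S. cerevisiae S288C grown at 25° C. in YPD to log phase, then exposed 2 h to a toxicant at a growth-inhibiting, non-lethal concentration; untreated cells as control. Poly(A) mRNA reverse-transcribed with Cy3-dUTP or Cy5-dUTP, hybridized >12 h at 65° C. to whole-genome yeast DNA chip; value = fluorescence ratio treated/untreated.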

With `CN(C)C(=S)SSC(=S)N(C)C` [(10), Tetramethylthiuram disulfide] the “The level of expressed mRNA in the presence of chemical substance/The level of expressed mRNA in the absence of chemical substance” value (yeast gene YBL030C) was 0.9, the “The level of expressed mRNA in the presence of chemical substance/The level of expressed mRNA in the absence of chemical substance” value (yeast gene YBL099W) was 0.7 and the “The level of expressed mRNA in the presence of chemical substance/The level of expressed mRNA in the absence of chemical substance” value (yeast gene YBR052C) was 2.5. For the same molecule, the “The level of expressed mRNA in the presence of chemical substance/The level of expressed mRNA in the absence of chemical substance” value (yeast gene YBR068C) was 2.5, the “The level of expressed mRNA in the presence of chemical substance/The level of expressed mRNA in the absence of chemical substance” value (yeast gene YBR127C) was 1.3 and the “The level of expressed mRNA in the presence of chemical substance/The level of expressed mRNA in the absence of chemical substance” value (yeast gene YBR132C) was 1.1. For the same molecule, the “The level of expressed mRNA in the presence of chemical substance/The level of expressed mRNA in the absence of chemical substance” value (yeast gene YBR207W) was 2.2, the “The level of expressed mRNA in the presence of chemical substance/The level of expressed mRNA in the absence of chemical substance” value (yeast gene YBR293W) was 2.4 and the “The level of expressed mRNA in the presence of chemical substance/The level of expressed mRNA in the absence of chemical substance” value (yeast gene YBR294W) was 5.2. The “The level of expressed mRNA in the presence of chemical substance/The level of expressed mRNA in the absence of chemical substance” value (yeast gene YBR295W) was 3.3, the “The level of expressed mRNA in the presence of chemical substance/The level of expressed mRNA in the absence of chemical substance” value (yeast gene YBR298C) was 1.1 and the “The level of expressed mRNA in the presence of chemical substance/The level of expressed mRNA in the absence of chemical substance” value (yeast gene YCL025C) was 0.3. The “The level of expressed mRNA in the presence of chemical substance/The level of expressed mRNA in the absence of chemical substance” value (yeast gene YCL038C) was 0.9, the “The level of expressed mRNA in the presence of chemical substance/The level of expressed mRNA in the absence of chemical substance” value (yeast gene YCR024C-A) was 0.7 and the “The level of expressed mRNA in the presence of chemical substance/The level of expressed mRNA in the absence of chemical substance” value (yeast gene YCR037C) was 0.6. For the same molecule, the “The level of expressed mRNA in the presence of chemical substance/The level of expressed mRNA in the absence of chemical substance” value (yeast gene YCR098C) was 2.4, the “The level of expressed mRNA in the presence of chemical substance/The level of expressed mRNA in the absence of chemical substance” value (yeast gene YDL128W) was 0.7 and the “The level of expressed mRNA in the presence of chemical substance/The level of expressed mRNA in the absence of chemical substance” value (yeast gene YDL198C) was 2.7. The “The level of expressed mRNA in the presence of chemical substance/The level of expressed mRNA in the absence of chemical substance” value (yeast gene YDL206W) was 1.5, the “The level of expressed mRNA in the presence of chemical substance/The level of expressed mRNA in the absence of chemical substance” value (yeast gene YDL210W) was 1.4 and the “The level of expressed mRNA in the presence of chemical substance/The level of expressed mRNA in the absence of chemical substance” value (yeast gene YDL245C) was 2.8. The “The level of expressed mRNA in the presence of chemical substance/The level of expressed mRNA in the absence of chemical substance” value (yeast gene YDR038C) was 0.9, the “The level of expressed mRNA in the presence of chemical substance/The level of expressed mRNA in the absence of chemical substance” value (yeast gene YDR039C) was 1.0 and the “The level of expressed mRNA in the presence of chemical substance/The level of expressed mRNA in the absence of chemical substance” value (yeast gene YDR086C) was 0.8. For the same molecule, the “The level of expressed mRNA in the presence of chemical substance/The level of expressed mRNA in the absence of chemical substance” value (yeast gene YDR270W) was 3.6, the “The level of expressed mRNA in the presence of chemical substance/The level of expressed mRNA in the absence of chemical substance” value (yeast gene YDR298C) was 1.6 and the “The level of expressed mRNA in the presence of chemical substance/The level of expressed mRNA in the absence of chemical substance” value (yeast gene YDR342C) was 2.2. The “The level of expressed mRNA in the presence of chemical substance/The level of expressed mRNA in the absence of chemical substance” value (yeast gene YDR343C) was 2.1, the “The level of expressed mRNA in the presence of chemical substance/The level of expressed mRNA in the absence of chemical substance” value (yeast gene YDR345C) was 1.1 and the “The level of expressed mRNA in the presence of chemical substance/The level of expressed mRNA in the absence of chemical substance” value (yeast gene YDR387C) was 2.0. For the same molecule, the “The level of expressed mRNA in the presence of chemical substance/The level of expressed mRNA in the absence of chemical substance” value (yeast gene YDR497C) was 0.8, the “The level of expressed mRNA in the presence of chemical substance/The level of expressed mRNA in the absence of chemical substance” value (yeast gene YEL027W) was 1.1 and the “The level of expressed mRNA in the presence of chemical substance/The level of expressed mRNA in the absence of chemical substance” value (yeast gene YEL063C) was 1.7. For the same molecule, the “The level of expressed mRNA in the presence of chemical substance/The level of expressed mRNA in the absence of chemical substance” value (yeast gene YEL065W) was 4.9, the “The level of expressed mRNA in the presence of chemical substance/The level of expressed mRNA in the absence of chemical substance” value (yeast gene YER053C) was 3.9 and the “The level of expressed mRNA in the presence of chemical substance/The level of expressed mRNA in the absence of chemical substance” value (yeast gene YER119C) was 1.2. The “The level of expressed mRNA in the presence of chemical substance/The level of expressed mRNA in the absence of chemical substance” value (yeast gene YFL011W) was 1.6, the “The level of expressed mRNA in the presence of chemical substance/The level of expressed mRNA in the absence of chemical substance” value (yeast gene YFL041W) was 5.1 and the “The level of expressed mRNA in the presence of chemical substance/The level of expressed mRNA in the absence of chemical substance” value (yeast gene YFL050C) was 1.6. The “The level of expressed mRNA in the presence of chemical substance/The level of expressed mRNA in the absence of chemical substance” value (yeast gene YFL054C) was 2.3, the “The level of expressed mRNA in the presence of chemical substance/The level of expressed mRNA in the absence of chemical substance” value (yeast gene YFL055W) was 6.5 and the “The level of expressed mRNA in the presence of chemical substance/The level of expressed mRNA in the absence of chemical substance” value (yeast gene YGL006W) was 1.2. The “The level of expressed mRNA in the presence of chemical substance/The level of expressed mRNA in the absence of chemical substance” value (yeast gene YGL008C) was 0.4, the “The level of expressed mRNA in the presence of chemical substance/The level of expressed mRNA in the absence of chemical substance” value (yeast gene YGL104C) was 2.1 and the “The level of expressed mRNA in the presence of chemical substance/The level of expressed mRNA in the absence of chemical substance” value (yeast gene YGL167C) was 1.1. The “The level of expressed mRNA in the presence of chemical substance/The level of expressed mRNA in the absence of chemical substance” value (yeast gene YGL255W) was 5.0, the “The level of expressed mRNA in the presence of chemical substance/The level of expressed mRNA in the absence of chemical substance” value (yeast gene YGR055W) was 2.4 and the “The level of expressed mRNA in the presence of chemical substance/The level of expressed mRNA in the absence of chemical substance” value (yeast gene YGR065C) was 2.6. The “The level of expressed mRNA in the presence of chemical substance/The level of expressed mRNA in the absence of chemical substance” value (yeast gene YGR082W) was 0.9, the “The level of expressed mRNA in the presence of chemical substance/The level of expressed mRNA in the absence of chemical substance” value (yeast gene YGR096W) was 0.8 and the “The level of expressed mRNA in the presence of chemical substance/The level of expressed mRNA in the absence of chemical substance” value (yeast gene YGR138C) was 1.0. The “The level of expressed mRNA in the presence of chemical substance/The level of expressed mRNA in the absence of chemical substance” value (yeast gene YGR191W) was 0.7, the “The level of expressed mRNA in the presence of chemical substance/The level of expressed mRNA in the absence of chemical substance” value (yeast gene YGR197C) was 3.2 and the “The level of expressed mRNA in the presence of chemical substance/The level of expressed mRNA in the absence of chemical substance” value (yeast gene YGR224W) was 0.9. The “The level of expressed mRNA in the presence of chemical substance/The level of expressed mRNA in the absence of chemical substance” value (yeast gene YGR260W) was 0.4.
